From patent US20140048061A1, “SYSTEM AND METHOD FOR ADMINISTERING ANESTHETICS WHILE PERFORMING CPR” (priority 2012, published 2014)
Marks after values point to notes of the source that are not given here.

Experiments:
[1] = tested on: pigs experiencing induced cardiac arrest; assay: Pigs in induced VF cardiac arrest, untreated for 20 minutes, given inhaled isoflurane at the start of conventional manual CPR; assay type: in vivo
Experimental: As an example, Applicants conducted experiments on pigs experiencing induced cardiac arrest. Cardiac arrest was induced by generating ventricular fibrillation (VF) and pigs were left in untreated cardiac arrest for 20 minutes. At the initiation of conventional manual CPR, inhaled isoflurane at 4% was introduced via an anesthesia machine for a total of 3 minutes. The anesthesia was then turned off. After a total of 4 minutes of CPR the animals were then shocked back into a stable perfusing heart rhythm and the dose of isoflurane anesthesia was restarted at 1% to provide for anesthesia during the recovery period of the animals. […] Cardiac function based upon an assessment of the left ventricular (LV) ejection fraction (EF) after 1 and 4 hours was normal, as determined by echocardiography, and post resuscitation inotropic support was unnecessary due to the absence of hemodynamic instability. Two of the 4 animals had undetectable levels of markers of cardiac injury (creatinine phosphokinase MB and cardiac troponin [cTnI]), while 2 of the 4 animals had mild elevations of markers of cardiac injury (creatinine phosphokinase MB and cTnI) at 4 hours post ROSC (6.8±9 and 5.8±11 in ng/mL, respectively). […] Although the duration of untreated VF in the control animals was 5 minutes shorter, post ROSC left ventricular function was severely compromised (EF: 33±9%) and there was significant elevation of CKMB and cTnI at 4 hours post ROSC (26.5±13.7 and 31.2±14.3, p<0.05) compared to isoflurane treated animals resuscitated after 20 minutes of untreated VF. In the absence of anesthesia during CPR as described above, Applicants were been unable to resuscitate pigs after 20 minutes of untreated arrest with conventional CPR. These findings represent an important advance in the field of CPR.

[2] = tested on: animals after cardiac arrest and ROSC; assay: Second cardiac arrest/CPR experiment, sevoflurane-treated (SPoC) vs control: left ventricle ejection fraction post ROSC; assay type: in vivo, pigs; details: *P<0.05 vs controls
Experimental: (§1) Another experiment was conducted with similar results. In that experiment, the hearts were subsequently removed from 5 animals from each group 15 minutes post-ROSC for mitochondrial function testing. Compared with the control group, all mitochondrial function tests were improved in the sevoflurane treated animals.
(§2) Table 1 illustrates the mitochondrial function for complex I substrates pyruvate (P, 10 mM) and malate (M, 10 mM) and complex II substrate succinate (Suc, 10 mM) in control hearts vs. sevoflurane-treated hearts (SPoC). LVEF refers to the left ventricle ejection fraction percentage at 12 min post return of spontaneous circulation (ROSC). RCI refers to the respiratory control index (state 3/state 4 respiration). ATP refers to adenosine triphosphate synthesis and Ca Ret refers to calcium retention capacity until mitochondrial transition pore opening. The asterisk (*) refers to P of less than 0.05.

[3] = tested on: heart mitochondria (complex I and complex II substrates); assay: Mitochondrial function testing of hearts removed 15 minutes post-ROSC; assay type: in vivo, pigs
Experimental: as §1, §2

[4] = at 37° C.; cited from earlier work
[5] = 4 hours post ROSC, 2 of 4 animals undetectable, 2 of 4 mild elevations
[6] = pyruvate 10 mM and malate 10 mM

For FC(F)OC(Cl)C(F)(F)F (centres unmarked) [isoflurane], the “cardiac troponin cTnI (marker of cardiac injury)” value [1, 5] was 5.8 ± 11 ng/mL, the “creatinine phosphokinase MB (marker of cardiac injury)” value [1, 5] was 6.8 ± 9 ng/mL and the “post resuscitation inotropic support” value ([1]; absence of hemodynamic instability) was “unnecessary”. For the same compound, the “cardiac function based on left ventricular (LV) ejection fraction (EF)” value ([1]; after 1 and 4 hours, by echocardiography) was “normal” and the “shocks needed to achieve return of spontaneous circulation (ROSC)” value ([1]; all 4 animals, 20 min untreated VF, isoflurane 4% for 3 min, after 4 min CPR and one dose of 0.5 mg epinephrine) was 1-2 shocks.
With FCOC(C(F)(F)F)C(F)(F)F [sevoflurane] the “LVEF (%) 12 min Post ROSC” value [2] was 53 ± 16* %, the “all mitochondrial function tests compared with the control group” value ([3]; 5 animals per group, hearts removed 15 min post-ROSC) was “improved” and the “RCI P/M (respiratory control index, state 3/state 4 respiration)” value ([3]; complex I substrates pyruvate 10 mM and malate 10 mM, hearts removed 15 min post-ROSC) was 11.4 ± 0.5*. The “RCI Suc (respiratory control index)” value ([3]; complex II substrate succinate 10 mM, hearts removed 15 min post-ROSC) was 4.5 ± 0.2*, the “ATP P/M (adenosine triphosphate synthesis)” value [3, 6] was 148.5 ± 24.8* nm/min/mg and the “Ca Ret P/M (calcium retention capacity until mitochondrial transition pore opening)” value [3, 6] was 318.8 ± 45.0* nm/min/mg. The “ATP Suc (adenosine triphosphate synthesis)” value ([3]; succinate 10 mM) was 132.3 ± 18.4* nm/min/mg, the “Ca Ret Suc (calcium retention capacity until mitochondrial transition pore opening)” value ([3]; succinate 10 mM) was 474.0 ± 58.8* nm/min/mg and the “blood gas partition coefficient” value [4] was 0.65.
